Read-outs that look alike come from different tables or passages of the source.
Experiments:
[1] = Plasma protein binding (equilibrium dialysis), rat plasma; assay type: in vitro ADME; conditions: 1 μg/mL in plasma, dialysis vs phosphate buffer pH 7.4 overnight at 37° C., read-out: Plasma Protein Binding % Bound Rat (converted)
Experimental: (§1) Nitrone compounds of this invention were individually dissolved in DMSO to make a stock solution of 1 mg/mL. The compound was spiked into plasma to achieve a final concentration of 1 μg/mL. Spiked plasma and phosphate buffer (0.1M, pH 7.4), 200 μl each, were added to the opposite sides of the membrane in a 96-well equilibrium dialyzer. The dialyzer plate was then covered and equilibrated overnight at 37° C. on an orbital shaker. Aliquots were taken from the plasma and the buffer compartments and prepared by adding blank plasma to samples from the buffer compartments and drug-free phosphate buffer to samples from the plasma compartments to eliminate the matrix effects. The samples were extracted using protein precipitation procedure by adding CH3CN. The samples were analyzed using a LC/MS/MS method. The percentage of free and bound nitrone compound were calculated according to the following formula:
(§2) %Free=[Free Drug/Total Drug]*100=[(Peak Area)buffer/(Peak Area)serum]*100%Bound=100%Free

[2] = Plasma protein binding (equilibrium dialysis), human plasma; assay type: in vitro ADME; conditions: 1 μg/mL in plasma, dialysis vs phosphate buffer pH 7.4 overnight at 37° C., read-out: Plasma Protein Binding % Bound Human (converted)
Experimental: as §1, §2

[3] = Brain penetration after single oral dose in rats; assay type: in vivo; conditions: Sprague-Dawley, rat, single oral dose (compound 26 5 mg/kg, 62 15 mg/kg, 20, 63 and 66 50 mg/kg), at or near Tmax
Experimental: Nitrone compounds of this invention were formulated individually as suspensions and administered as a single dose to Sprague-Dawley rats via oral gavage (compound 26 at 5 mg/kg, compound 62 at 15 mg/kg, compounds 20, 63 and 66 at 50 mg/kg). Plasma samples were obtained at or near Tmax projected at the given dose for each compound and the animals were euthanized using carbon dioxide. Immediately following euthanization, cerebrospinal fluid (CSF) was obtained by cisternal puncture of the atlanto-occipital membrane and drawn from the magnum cisternum. The brain was first perfused intracardially with ˜150 mL of ice-cold 0.1 M Phosphate Buffered Saline (PBS) at pH7.4. Following the removal of the dura, the brain was weighed. The brain was then dissected into smaller pieces and rinsed twice with ˜10 mL PBS. The brain, CSF, and plasma samples were frozen on dry ice and stored at −80° C. before analysis. CSF and plasma samples were subjected to a protein precipitation method prior to LC/MS/MS analysis. Blank rat plasma and CSF were used accordingly for diluting the samples when needed. Bioanalytical standard curves were prepared by spiking a stock solution of the nitrone compound to blank rat plasma or CSF to achieve a quantitation curve range and analyzed the standards in the same manner as the samples. Brain samples underwent homogenization in 2 mL water and liquid-liquid extraction with ethyl acetate three times. The combined organic phase for each sample was evaporated under a stream of nitrogen at 40° C. and the residues were reconstituted with an appropriate amount of mobile phase B (referring to LC/MS/MS method section). A bioanalytical standard curve for brain analysis was prepared by spiking 100 μL of stock solution directly into sliced blank rat brain purchased from Pelfreez. The spiked brains then underwent the same processing procedures for the dosed samples.
The reconstituted samples were vortexed and incubated to fully dissolve the analytes. The samples were centrifuged, and then further diluted with Mobile phase B if necessary before LC/MS/MS analysis. Nitrone compound levels in the brain were calculated based on the measured concentration, the volume of reconstitution and brain weight to yield a unit of ng (of compound) per g of brain. To calculate the brain/plasma ratio (w/v), it was assumed that 1 g of brain tissue takes approximately 1 mL of volume.

[4] = Microsomal stability in human liver microsomes; assay type: in vitro ADME; conditions: NADPH, 37° C.
Method in brief: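 Compound (~500 ng/ml) incubated at 37°C for up to 30 min with 0.5 mg/ml microsomal protein and 1 mM NADPH in 0.1 M PBS pH7.4, after 3–5 min preincubation without NADPH. Sprague-Dawley rat or human microsomes; acetonitrile-quenched timepoints analysed by LC/MS/MS for half-life or percent remaining.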

[5] = CSF and plasma, read-out: CSF/Plasma (%)
[6] = brain and plasma, 1 g brain assumed 1 mL, read-out: Brain/Plasma (%)

Compound | fraction unbound at 1 μg/mL [1] | fraction unbound at 1 μg/mL [2] | Kp [3, 5] | Kp [3, 6] | % of Nitrone Remaining at 30 min (Human) [4] [%]
CC(C)(C)/[N+]([O-])=C/c1ccc(S(N)(=O)=O)cc1 [Compound 20, N-(tert-Butyl)-C-[4-(sulfamoyl)phenyl]nitrone] | 0.976 | 1 | 0.144 | 0.229 | –
CC(C)(C)/[N+]([O-])=C/c1ccc(S(=O)(=O)N2CCOCC2)cc1 [Compound 23, N-(tert-Butyl)-C-[4-(morpholine-4-sulfonyl)phenyl]nitrone] | 0.782 | 0.8 | – | – | –
CC(C)(C)/[N+]([O-])=C/c1ccc(S(=O)(=O)Nc2cccnc2)cc1 [Compound 26, N-(tert-Butyl)-C-[4-(pyridin-3-ylsulfamoyl)phenyl]nitrone] | 0.01 | 0.238 | 0.0012 | 0.0056 | –
CC(C)(C)/[N+]([O-])=C/c1ccc(S(C)(=O)=O)cc1 [Compound 62, N-tert-Butyl-C-[4-(methanesulfonyl)phenyl]nitrone] | 0.999 | 0.826 | 0.786 | 0.625 | 100
CC(C)(C)/[N+]([O-])=C/c1ccc(S(C)(=O)=O)cc1S(C)(=O)=O [Compound 63, N-tert-Butyl-C-(2,4-bis-methanesulfonylphenyl)nitrone] | 0.741 | 0.867 | 0.336 | 0.189 | 99
CCS(=O)(=O)c1ccc(/C=[N+](\[O-])C(C)(C)C)c(S(=O)(=O)CC)c1 [Compound 64, N-tert-Butyl-C-(2,4-bis-ethanesulfonylphenyl)nitrone] | 0.811 | 0.697 | – | – | 100
CC(C)(C)/[N+]([O-])=C/c1ccccc1S(C)(=O)=O [Compound 66, N-tert-Butyl-C-(2-methanesulfonylphenyl)nitrone] | 0.898 | 0.726 | 0.936 | 0.224 | –
